Results: US20230348424A1, “HETEROCYCLIC COMPOUNDS AND METHODS OF USE” (Schrödinger, Inc., priority 2022, published 2023)

Target: SOS1:KRAS (G12C) interaction (Homo sapiens (Human), UniProt Q07889)
Test: SOS1 KRas(G12C) FRET Assay
Assay type: binding
Settings: 0.5 nM His10-SOS1 (res. 564-1049), 2.5 nM GST-KRAS G12C (res. 1-169), 2 hrs at RT
How it was run: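 GST-KRAS G12C (res. 1-169) at 2.5 nM and His10-SOS1 (res. 564-1049) at 0.5 nM, final, in PBS with 0.1% BSA, 5 mM MgCl2, 100 mM KF, 5 mM DTT and 0.5% DMSO. After 2 h at RT, FRET read at 665/615 nm and normalized to DMSO and no-SOS1 controls. IC50 by non-linear regression.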

Sequence of SOS1:KRAS (G12C) interaction (Q07889 564-1049, stated change not applied): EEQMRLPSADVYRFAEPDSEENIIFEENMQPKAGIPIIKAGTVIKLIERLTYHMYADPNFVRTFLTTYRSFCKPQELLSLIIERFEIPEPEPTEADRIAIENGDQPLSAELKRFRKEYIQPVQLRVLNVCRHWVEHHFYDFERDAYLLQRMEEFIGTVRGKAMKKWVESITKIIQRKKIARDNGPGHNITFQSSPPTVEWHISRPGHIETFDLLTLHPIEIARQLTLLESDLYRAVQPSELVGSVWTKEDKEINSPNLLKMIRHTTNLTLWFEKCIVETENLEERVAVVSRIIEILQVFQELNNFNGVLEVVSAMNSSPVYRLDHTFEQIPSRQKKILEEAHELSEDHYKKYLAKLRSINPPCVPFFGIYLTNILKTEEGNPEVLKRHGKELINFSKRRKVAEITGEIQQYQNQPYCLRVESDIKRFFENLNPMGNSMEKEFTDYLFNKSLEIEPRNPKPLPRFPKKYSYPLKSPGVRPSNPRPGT

Row | SMILES | IC50 [µM]
1 | C[C@@H](NC(=O)c1cn(C23COC(C2)C3)c(=O)cc1N[C@H]1[C@@H]2CN(C)C[C@@H]21)c1cccc(C(F)F)c1F [Example 192] | 0.0129
2 | C[C@@H](NC(=O)c1cn(C2(C(F)F)CC2)c(=O)cc1N[C@@H]1[C@@H]2C[C@H]1CN(C)C2)c1cccc(C(F)F)c1F (single isomer, unassigned) [Example 250] | 0.0217
3 | C[C@@H](NC(=O)c1cn(C2(C(F)F)CC2)c(=O)cc1N[C@@H]1CCN2CCC[C@H]2C1)c1cccc(C(F)F)c1F (single isomer, unassigned) [Example 303] | 0.0182
4 | COc1ccc([C@@H](C)NC(=O)c2cn(C3(C(F)F)CC3)c(=O)cc2NC2CCN(C)CC2)c(F)c1C(F)(F)F (single isomer, unassigned) [Example 165] | 7.94
5 | C[C@@H](NC(=O)c1cn(C2CCC2)c(=O)cc1N[C@@H]1[C@@H]2CC[C@H]1CN(C)C2)c1cccc(C(F)F)c1F (single isomer, unassigned) [Example 215] | 0.0682
6 | COC12CC(CNc3cc(=O)n(C45CC(C4)C5)cc3C(=O)N[C@H](C)c3cccc(C(F)F)c3F)(C1)C2 [Example 262, (R)-1-(bicyclo[1.1.1]pentan-1-yl)-N-(1-(3-(difluoromethyl)-2-fluorophenyl)ethyl)-4-(((3-methoxybicyclo[1.1.1]pentan-1-yl)methyl)amino)-6-oxo-1,6-dihydropyridine-3-carboxamide] | 0.116
7 | C[C@@H](NC(=O)c1cn(C2(C(F)F)CC2)c(=O)cc1NCC1(F)CN(C)C1)c1cccc(C(F)F)c1F [Example 185, (R)-N-(1-(3-(difluoromethyl)-2-fluorophenyl)ethyl)-1-(1-(difluoromethyl)cyclopropyl)-4-(((3-fluoro-1-methylazetidin-3-yl)methyl)amino)-6-oxo-1,6-dihydropyridine-3-carboxamide] | 0.0307
8 | C[C@@H](NC(=O)c1cn(C23CC(C2)C3)c(=O)cc1N[C@H]1[C@@H]2CN(C)C[C@@H]21)c1cccc(S(F)(F)(F)(F)F)c1F [Example 162, 1-(bicyclo[1.1.1]pentan-1-yl)-N-((R)-1-(2-fluoro-3-(pentafluoro-16-sulfaneyl)phenyl)ethyl)-4-(((1R,5S,6s)-3-methyl-3-azabicyclo[3.1.0]hexan-6-yl)amino)-6-oxo-1,6-dihydropyridine-3-carboxamide] | 0.0278
9 | C[C@@H](NC(=O)c1cn(C2(C(F)F)CC2)c(=O)cc1N[C@@H]1[C@@H]2CC[C@H]1CN(C)C2)c1cccc(C(F)F)c1F (single isomer, unassigned) [Example 246] | 0.0161
10 | CN1C[C@@H]2[C@H](C1)[C@H]2Nc1cc(=O)n(C2(C(F)F)CC2)cc1C(=O)N[C@H](c1cccc(C(F)F)c1F)C(F)(F)F (single isomer, unassigned) [Example 276] | > 10
11 | C[C@@H](NC(=O)c1cn([C@]23COC[C@H]2C3)c(=O)cc1NC1CCN(C)CC1)c1cccc(C(F)F)c1F [Example 285, 1-((1S,SS)-3-oxabicyclo[3.1.0]hexan-1-yl)-N-((R)-1-(3-(difluoromethyl)-2-fluorophenyl)ethyl)-4-((1-methylpiperidin-4-yl)amino)-6-oxo-1,6-dihydropyridine-3-carboxamide] | 0.0047
12 | C[C@@H](NC(=O)c1cn(C23CC(C2)C3)c(=O)cc1N[C@@H]1CCN(C)C[C@@H]1F)c1cccc(C(F)F)c1F (single isomer, unassigned) [Example 204] | 0.00361
13 | COCCN1CC(CNc2cc(=O)n(C3CCOCC3)cc2C(=O)N[C@H](C)c2cccc(C(F)(F)F)c2C)C1 [Example 295, (R)-4-(((1-(2-methoxyethyl)azetidin-3-yl)methyl)amino)-N-(1-(2-methyl-3-(trifluoromethyl)phenyl)ethyl)-6-oxo-1-(tetrahydro-2H-pyran-4-yl)-1,6-dihydropyridine-3-carboxamide] | 0.0536
